Data on six molecules can be found in patent publication US9242977B2, “Trk-inhibiting compound” (ONO PHARMACEUTICAL CO., LTD., priority 2012, dated 2016).

Assay [1] relates to NGF-induced vascular hyper permeability. As to the kind of experiment: Suppression of rat NGF-induced vascular hyper permeability (in vivo test, Evans Blue). Conditions: oral, 12 hours after administration, read-out: Rates of Suppression for Vascular Hyper Permeability (%). As to the method:
TrkA-inhibiting activity of the present compound was evaluated in vivo. The present compound dissolved in a medium was orally administered (adminstered volume: 5 mL/kg) to male CD(SD)IGS rats (7- to 9-week old, Charles River laboratories Japan, Inc.) shaved on the back. A medium was orally administered (adminstered volume: 5 mL/kg) to the control and normal groups. After 6 or 12 hours of administration, 3 μg/mL of a NGF (Mouse 2.5s, Natural, Invitrogen) solution prepared in 0.1% BSA (Sigma-Aldrich)-containing saline was intracutaneously administered (dose; 50 μL/site) at 3 sites on the back of animals under halothane anesthesia. For the normal group, 0.1% BSA-containing saline was intracutaneously administered (dose; 50 μL/site) at 3 sites on the back. Immediately after intracutaneous administration, 1% Evans Blue (Tokyo Chemical Industry Co., Ltd.) was administered intravenously from tail (adminstered volume: 3 mL/kg). After 10 minutes of administration, the animals were sacrificed by bleeding due to incision of the abdominal aorta. The sites of intracutaneous administration on the back (3 sites) were excised and the skin samples were respectively transferred to the wells in a 48-well plate (Asahi Glass Co., Ltd.). Formamide (0.8 mL/well) was added to the plate and the plate was sealed and incubated overnight at 60° C. The formamide extraction solution (200 μL) was transferred to a 96-well plate and the absorbance (wavelength: 620 nm) of Evans Blue extracted in formamide was measured on an absorbance microplate reader (SpectraMAX 190, Molecular Devices Japan, K.K.). Standard samples of Evans Blue dissolved in formamide (0, 0.78, 1.56, 3.13, 6.25, 12.5, 25 and 50 μg/mL) were measured at the same time for the absorbance (wavelength: 620 nm) to generate a calibration curve. Based on the calibration curve and the absorbances of samples, the concentrations of Evans Blue in the sample was calculated. The concentrations of Evans Blue for three skin samples collected from one aminal were averaged to obtain the vale for the animal. The rate of suppression for rat NGF-induced vascular hyper permeability of the present compound was calculated according to the following Equation 4: Suppression rate (%)=(1−(AX−AN)/(AC−AN)}×100 Equation 4
wherein AX: the concentration of Evans Blue of the test compound (an average value of 3 samples from one animal);
AN: the concentration of Evans Blue of the normal group (an average value of 3 samples from one animal);
AC: the concentration of Evans Blue of the control group (an average value of 3 samples from one animal).

For assay [2], the target named is KDR (Homo sapiens (Human), UniProt P35968). As to the kind of experiment: Enzyme inhibition activity test for kinases other than Trk (selectivity test): KDR. Format: biochemical. The conditions noted are these: test concentration 3 μM; read-out: Inhibition Rate (%) KDR. As to the method:
(§1) A test substance (present compound or comparative compound) was dissolved in dimethylsulfoxide and further diluted with dimethylsulfoxide to prepare a solution having a concentration of 100 times the test concentration of 3 μM. The solution was further diluted to 25-fold with an assay buffer (20 mM HEPES, 0.01% Triton X-100, 2 mM DTT, pH 7.5) to obtain a test substance solution. In a similar manner a positive control substance solution was prepared with a positive control substance.
(§2) A 4-times concentration solution (5 μL) of the test substance prepared with the assay buffer, 5 μL of a 4-times concentration solution of substrate/ATP/metal (Mg) and 10 μL of a 2-times concentration solution of kinase were mixed in a well of a polypropylene 384-well plate and allowed to react at room temperature for 1 hour. The reaction was terminated by adding 60 μL of a Termination Buffer (QuickScout Screening Assist MSA; Carna Biosciences). The substrate peptide and the phosphorylated peptide in the reaction solution were separated and quantified. The kinase reaction was assessed from the product ratio (P/(P+S)) calculated from the height (S) of the peak of the substrate peptide and the height (P) of the peak of the phosphorylated peptide. Other kinases used in the kinase selectivity experiments were, for example, Abl, c-Met, b-Raf, c-Kit and KDR. The following Table 2 indicates substrates, substrate concentrations, ATP concentrations and positive control substances used in respective kinase enzyme inhibition activity tests.
(§3) The inhibition rate was calculated from the average signal intensity of the test wells containing respective test substances provided that the average signal intensity of control wells each containing all reaction components was 0% inhibition and the average signal intensity of background wells (without addition of the enzyme) was 100% inhibition.

Assay [3] concerns the target c-Met (Homo sapiens (Human), UniProt P08581). The assay is described as follows: Enzyme inhibition activity test for kinases other than Trk (selectivity test): c-Met. Conditions: test concentration 3 μM; read-out: Inhibition Rate (%) c-Met. The class given is biochemical. On the procedure:
as §1, §2, §3

Assay [4] deals with Abl (Homo sapiens (Human), UniProt P00519). As to the kind of experiment: Enzyme inhibition activity test for kinases other than Trk (selectivity test): Abl. Format: biochemical. Conditions: test concentration 3 μM; read-out: Inhibition Rate (%) Abl. On the procedure:
as §1, §2, §3

For assay [5], the target named is b-Raf (Homo sapiens (Human), UniProt P15056). The assay is described as follows: Enzyme inhibition activity test for kinases other than Trk (selectivity test): b-Raf. Format: biochemical. Conditions: test concentration 3 μM; read-out: Inhibition Rate (%) b-Raf. As to the method:
as §1, §2, §3

Assay [6] concerns the target c-Kit (Homo sapiens (Human), UniProt P10721). The assay is described as follows: Enzyme inhibition activity test for kinases other than Trk (selectivity test): c-Kit. The class given is biochemical. The conditions noted are these: test concentration 3 μM; read-out: Inhibition Rate (%) c-Kit. As to the method:
as §1, §2, §3

b-Raf, sequence (P15056 whole entry): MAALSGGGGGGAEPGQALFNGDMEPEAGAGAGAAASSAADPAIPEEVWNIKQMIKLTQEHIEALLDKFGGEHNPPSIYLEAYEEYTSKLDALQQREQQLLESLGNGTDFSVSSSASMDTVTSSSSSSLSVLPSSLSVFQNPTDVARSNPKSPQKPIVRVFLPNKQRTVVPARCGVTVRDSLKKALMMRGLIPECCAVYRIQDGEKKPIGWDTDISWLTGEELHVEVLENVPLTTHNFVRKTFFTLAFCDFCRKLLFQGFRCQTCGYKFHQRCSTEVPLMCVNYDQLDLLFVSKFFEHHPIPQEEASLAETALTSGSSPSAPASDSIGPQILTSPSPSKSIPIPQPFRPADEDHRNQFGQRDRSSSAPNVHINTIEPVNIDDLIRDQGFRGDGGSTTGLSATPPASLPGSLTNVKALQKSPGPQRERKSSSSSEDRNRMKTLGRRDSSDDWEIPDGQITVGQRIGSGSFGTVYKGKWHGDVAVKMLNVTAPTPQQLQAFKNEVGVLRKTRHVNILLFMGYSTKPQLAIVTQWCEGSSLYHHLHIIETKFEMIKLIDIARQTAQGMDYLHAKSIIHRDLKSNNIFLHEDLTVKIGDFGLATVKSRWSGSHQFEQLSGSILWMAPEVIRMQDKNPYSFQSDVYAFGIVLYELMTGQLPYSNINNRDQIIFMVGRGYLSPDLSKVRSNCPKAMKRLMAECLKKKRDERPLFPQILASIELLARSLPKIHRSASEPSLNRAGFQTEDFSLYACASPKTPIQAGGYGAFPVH
KDR, sequence (P35968 20-1356): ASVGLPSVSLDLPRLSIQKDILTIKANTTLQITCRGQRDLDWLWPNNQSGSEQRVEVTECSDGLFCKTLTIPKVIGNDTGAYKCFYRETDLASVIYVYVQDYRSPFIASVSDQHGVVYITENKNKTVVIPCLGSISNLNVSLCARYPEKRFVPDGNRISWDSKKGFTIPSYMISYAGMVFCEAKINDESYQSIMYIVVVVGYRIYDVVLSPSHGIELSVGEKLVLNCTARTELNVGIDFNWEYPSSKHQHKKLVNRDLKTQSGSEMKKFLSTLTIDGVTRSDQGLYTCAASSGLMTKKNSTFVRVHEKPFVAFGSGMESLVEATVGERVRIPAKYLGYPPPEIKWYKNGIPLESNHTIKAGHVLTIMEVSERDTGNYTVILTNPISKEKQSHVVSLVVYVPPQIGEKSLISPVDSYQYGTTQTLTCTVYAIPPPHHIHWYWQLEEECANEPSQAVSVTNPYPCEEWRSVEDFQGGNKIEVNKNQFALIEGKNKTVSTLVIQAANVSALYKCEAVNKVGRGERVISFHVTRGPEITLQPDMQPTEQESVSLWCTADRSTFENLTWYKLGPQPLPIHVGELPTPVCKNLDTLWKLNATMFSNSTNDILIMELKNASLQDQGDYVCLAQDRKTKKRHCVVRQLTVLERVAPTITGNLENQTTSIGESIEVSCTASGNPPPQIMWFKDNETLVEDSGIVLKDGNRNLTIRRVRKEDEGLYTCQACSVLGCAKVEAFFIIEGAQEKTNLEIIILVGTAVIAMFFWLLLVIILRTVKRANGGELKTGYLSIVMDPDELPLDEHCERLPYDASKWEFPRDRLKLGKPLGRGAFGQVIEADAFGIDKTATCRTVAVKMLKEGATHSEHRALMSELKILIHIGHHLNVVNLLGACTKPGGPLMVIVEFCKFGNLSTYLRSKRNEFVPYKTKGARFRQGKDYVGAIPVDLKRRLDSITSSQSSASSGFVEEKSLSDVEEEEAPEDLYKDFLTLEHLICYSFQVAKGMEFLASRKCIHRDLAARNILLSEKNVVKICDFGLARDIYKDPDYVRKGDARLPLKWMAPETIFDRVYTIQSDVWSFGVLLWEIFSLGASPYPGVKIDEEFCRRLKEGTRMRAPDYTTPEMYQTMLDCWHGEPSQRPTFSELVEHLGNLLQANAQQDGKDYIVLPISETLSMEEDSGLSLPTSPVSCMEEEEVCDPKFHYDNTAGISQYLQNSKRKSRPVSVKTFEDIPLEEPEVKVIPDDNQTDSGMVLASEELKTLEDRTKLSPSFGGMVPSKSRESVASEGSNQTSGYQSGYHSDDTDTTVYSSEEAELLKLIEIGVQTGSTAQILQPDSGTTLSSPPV
c-Kit, sequence (P10721 26-976): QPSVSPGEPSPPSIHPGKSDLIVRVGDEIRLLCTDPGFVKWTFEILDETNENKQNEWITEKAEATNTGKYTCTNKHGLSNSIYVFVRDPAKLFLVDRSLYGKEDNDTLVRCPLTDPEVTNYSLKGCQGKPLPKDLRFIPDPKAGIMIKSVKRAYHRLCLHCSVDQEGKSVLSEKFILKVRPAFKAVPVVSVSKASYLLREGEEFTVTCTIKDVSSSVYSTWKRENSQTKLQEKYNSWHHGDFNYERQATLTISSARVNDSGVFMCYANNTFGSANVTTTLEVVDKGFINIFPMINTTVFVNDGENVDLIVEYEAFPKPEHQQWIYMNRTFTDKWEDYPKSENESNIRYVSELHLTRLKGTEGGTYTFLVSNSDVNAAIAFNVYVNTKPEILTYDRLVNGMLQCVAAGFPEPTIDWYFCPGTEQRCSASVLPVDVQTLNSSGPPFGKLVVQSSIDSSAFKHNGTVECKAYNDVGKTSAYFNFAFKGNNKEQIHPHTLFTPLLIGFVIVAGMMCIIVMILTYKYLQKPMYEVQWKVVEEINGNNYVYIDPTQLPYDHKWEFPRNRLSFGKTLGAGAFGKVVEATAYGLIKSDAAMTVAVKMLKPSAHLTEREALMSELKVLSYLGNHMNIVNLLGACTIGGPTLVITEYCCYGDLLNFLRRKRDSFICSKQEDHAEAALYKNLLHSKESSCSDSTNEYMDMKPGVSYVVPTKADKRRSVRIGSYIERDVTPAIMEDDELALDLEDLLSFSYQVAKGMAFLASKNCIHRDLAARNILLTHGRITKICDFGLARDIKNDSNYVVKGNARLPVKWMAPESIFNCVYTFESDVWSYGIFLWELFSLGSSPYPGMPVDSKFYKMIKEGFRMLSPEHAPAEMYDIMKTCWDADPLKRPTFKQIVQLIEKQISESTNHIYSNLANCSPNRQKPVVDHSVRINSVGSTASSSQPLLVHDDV
Abl, sequence (P00519 whole entry): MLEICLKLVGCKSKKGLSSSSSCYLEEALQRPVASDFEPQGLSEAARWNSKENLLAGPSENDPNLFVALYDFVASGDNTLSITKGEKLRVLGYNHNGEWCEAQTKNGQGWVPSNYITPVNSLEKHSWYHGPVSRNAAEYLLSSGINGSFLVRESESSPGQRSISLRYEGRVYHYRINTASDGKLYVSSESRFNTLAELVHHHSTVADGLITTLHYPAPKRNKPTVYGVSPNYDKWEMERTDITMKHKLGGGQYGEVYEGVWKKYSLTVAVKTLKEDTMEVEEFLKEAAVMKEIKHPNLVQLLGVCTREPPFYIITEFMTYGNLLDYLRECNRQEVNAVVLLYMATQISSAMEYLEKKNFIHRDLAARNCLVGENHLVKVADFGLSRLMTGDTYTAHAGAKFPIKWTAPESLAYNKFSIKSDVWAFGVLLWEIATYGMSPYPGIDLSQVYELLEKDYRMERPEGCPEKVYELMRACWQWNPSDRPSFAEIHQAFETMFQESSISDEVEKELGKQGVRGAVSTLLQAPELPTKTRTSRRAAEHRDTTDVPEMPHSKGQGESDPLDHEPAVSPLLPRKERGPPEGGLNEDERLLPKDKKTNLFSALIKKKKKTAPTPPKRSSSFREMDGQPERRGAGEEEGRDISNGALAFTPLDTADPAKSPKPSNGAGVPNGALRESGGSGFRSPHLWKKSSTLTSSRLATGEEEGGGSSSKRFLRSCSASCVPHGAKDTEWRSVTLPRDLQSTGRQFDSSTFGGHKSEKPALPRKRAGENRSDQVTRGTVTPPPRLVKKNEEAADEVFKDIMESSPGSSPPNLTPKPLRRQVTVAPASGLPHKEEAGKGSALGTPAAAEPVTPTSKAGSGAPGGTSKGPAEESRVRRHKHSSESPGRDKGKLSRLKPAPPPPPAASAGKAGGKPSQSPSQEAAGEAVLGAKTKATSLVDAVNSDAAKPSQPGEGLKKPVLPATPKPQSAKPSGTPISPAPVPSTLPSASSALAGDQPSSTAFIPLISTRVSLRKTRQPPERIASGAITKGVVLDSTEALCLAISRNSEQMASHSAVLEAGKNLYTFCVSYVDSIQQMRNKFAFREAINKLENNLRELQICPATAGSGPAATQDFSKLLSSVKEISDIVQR

What is called inhibition is the change of the read-out against control, counted positive when it falls. For the molecule `CCNc1ncc(-c2ccc(Oc3ncc(NC(=O)Nc4cc(C(F)(F)F)cnc4-c4ccc(C)cc4)cn3)cc2)s1` [Example 23, 1-(2-{4-[2-(ethylamino)-1,3-thiazol-5-yl]phenoxy}-5-pyrimidinyl)-3-[2-(4-methylphenyl)-5-(trifluoromethyl)-3-pyridinyl]urea], the inhibition in vivo at 1 mg/kg in assay [1] stood at 78%. For the same molecule, the inhibition at 3 µM in assay [2] worked out at 15%; in assay [3], 6.5%; in assay [4] it was 25%; in assay [5], 23%; in assay [6] it was 31%.
For `CCNc1ncc(-c2ccc(Oc3ccc(NC(=O)Nc4cc(C(F)(F)F)cnc4-c4ccc(C)c(C)c4)cn3)cc2)s1` [Example 34, 1-[2-(3,4-dimethylphenyl)-5-(trifluoromethyl)-3-pyridinyl]-3-(6-{4-[2-(ethylamino)-1,3-thiazol-5-yl]phenoxy}-3-pyridinyl)urea], the inhibition in vivo at 1 mg/kg in assay [1] was 75%.
Consider `O=C(Nc1cnc(Oc2ccc(-c3cnc(N4CCCC4=O)s3)cc2)nc1)Nc1cc(C(F)(F)F)cnc1-c1ccccc1` [Example 54, 1-(2-{4-[2-(2-oxo-1-pyrrolidinyl)-1,3-thiazol-5-yl]phenoxy}-5-pyrimidinyl)-3-[2-phenyl-5-(trifluoromethyl)-3-pyridinyl]urea], for which, in assay [1], the inhibition in vivo at 1 mg/kg stood at 88%. For the same molecule, the inhibition at 3 µM in assay [2] came to 2.4%; in assay [3], 0%; in assay [4], 8.9%; in assay [5], 17%; in assay [6], 7.2%.
In the case of `CCNc1ncc(-c2ccc(Oc3ncc(NC(=O)Nc4cc(C(F)(F)F)cnc4Oc4ccccc4)cn3)cc2)s1` [Example 48, 1-(2-{4-[2-(ethylamino)-1,3-thiazol-5-yl]phenoxy}-5-pyrimidinyl)-3-[2-phenoxy-5-(trifluoromethyl)-3-pyridinyl]urea], in assay [1], the inhibition in vivo at 1 mg/kg amounted to 71%.
Regarding `Cc1cccc(-c2ncc(C(F)(F)F)cc2NC(=O)Nc2cnc(Oc3ccc(-c4cnc(N5CCCC5=O)s4)cc3)nc2)c1` [Example 57, 1-[2-(3-methylphenyl)-5-(trifluoromethyl)-3-pyridinyl]-3-(2-{4-[2-(2-oxo-1-pyrrolidinyl)-1,3-thiazol-5-yl]phenoxy}-5-pyrimidinyl)urea], the inhibition in vivo at 1 mg/kg in assay [1] was determined as 78%. The inhibition at 3 µM in assay [2] amounted to 0%; in assay [3], 4.9%; in assay [4], 0%; in assay [5], 18%; in assay [6], 9.1%.
In the case of `CCCNc1ncc(-c2ccc(Oc3ncc(NC(=O)Nc4cc(C(F)(F)F)ccc4Cl)cn3)cc2)s1` [Example 85-117, 1-[2-chloro-5-(trifluoromethyl)phenyl]-3-(2-{4-[2-(propylamino)-1,3-thiazol-5-yl]phenoxy}-5-pyrimidinyl)urea], in assay [1], the inhibition in vivo at 1 mg/kg was found to be 74%. The inhibition at 3 µM in assay [2] was determined as 0%; in assay [3], 0%; in assay [4], 0%; in assay [5] it was 13%; in assay [6], 19%.
